Reference: US10463747B2, “Method of developing a vaccine using peptide-poly IC complexes” (H. Lee Moffitt Cancer Center and Research Institute, Inc., priority 2011, dated 2019)
Where no end group is shown, it is not given here.

Legend:
[1] = test system: CD8 T cell responses of peptide epitope Trp1455/9M (TAPDNLGYM); experiment: Tetramer analysis of CD8 T cell responses after i.v. prime-boost vaccination with modified Trp1 peptide mixed with Poly-IC; type: in vivo, mice; settings: for immunogenicity of peptide epitope (CD8 T cell response, tetramer analysis): i.v. prime-boost 2 weeks apart, blood 7 days after boost; for immunogenicity of peptide epitope compared with hepta-arginine (R)7 tail: three-arginine tail, FIG. 2
Method: CD8 T cell responses of peptide epitope Trp1455/9M (TAPDNLGYM) (SEQ ID NO:2) containing 3 types of tails with charged amino acids (R, K or E) and a short linker (MFV) (SEQ ID NO:3) were measured by tetramer analysis after i.v. prime-boost (2 weeks apart) vaccination using 120 μg peptide mixed with 50 μg Poly-IC. These sequences correspond to (R)7-MFV-TAPDNLGYM (SEQ ID NO:4); (K)7-MFV-TAPDNLGYM (SEQ ID NO:5); and (E)7-MFV-TAPDNLGYM (SEQ ID NO:6) respectively. Immune responses in 3 individual mice measured 7 days after the boost in blood samples. Numbers below the rectangular gates correspond to the % tetramer positive (antigen-specific) cells of the total CD8 T cell population.
The sequence for the three-arginine tail is (R)3-MFVTAPDNLGYM (SEQ ID NO:7).
CD8 T cell responses of peptide epitope Trp1455/9M (TAPDNLGYM) (SEQ ID NO:2) containing 2 types of hydrophobic tails (LMFVMFV-TAPDNLGYM (SEQ ID NO:10) and (Pam)2KMFV-TAPDNLGYM (SEQ ID NO:11)) at the amino terminus end were measured by tetramer analysis after i.v. prime-boost (2 weeks apart) vaccination using peptide mixed with 50 μg Poly-IC. Immune responses in 3 individual mice measured 7 days after the boost in blood samples. Numbers below the rectangular gates correspond to the % tetramer positive (antigen-specific) cells of the total CD8 T cell population.
(§1) Comparison of CD8 T cell responses of peptide epitope (pam)2Trp455/9M [(Pam)2KMFV-TAPDNLGYM] (SEQ ID NO:11) injected together with 50 μg Poly-IC (top panels) or 3.5 hours after the Poly-IC (bottom panels). Immune response in 3 individual mice measured 7 days after an identical boost (12 days apart) in blood samples. Numbers below the rectangular gates correspond to the % tetramer positive (antigen-specific) cells of the total CD8 T cell population.

[2] = test system: CD8 T cell responses of peptide epitope HPV16-E749 (RAHYNIVTF); experiment: Tetramer analysis of CD8 T cell responses after i.v. prime-boost vaccination with HPV16-E7 peptide mixed with Poly-IC; type: in vivo, mice; settings: for immunogenicity of peptide epitope (CD8 T cell response, tetramer analysis): i.v. prime-boost 2 weeks apart, 30 μg peptide mixed with 50 μg Poly-IC, blood 7 days after boost
Method: CD8 T cell responses of peptide epitope HPV16-E749 (RAHYNIVTF) (SEQ ID NO:8) and HPV16-E749/1A (AAHYNIVTF) (SEQ ID NO:9) measured by tetramer analysis after i.v. prime-boost (2 weeks apart) vaccination using 30 μg peptide mixed with 50 μg Poly-IC. Immune responses in 3 individual mice measured 7 days after the boost in blood samples. Numbers below the oval gates correspond to the % tetramer positive (antigen-specific) cells of the total CD8 T cell population.
as §1, with “epitope HPV16-E749 (RAHYNIVTF)” for “epitope (pam)2Trp455/9M [(Pam)2KMFV-TAPDNLGYM]”, “ID NO:8)” for “ID NO:11)”, “or 5” for “or 3.5”, “Immune responses” for “Immune response”, “the oval” for “the rectangular”

MHC molecule = biological target: T1, MHC molecule (Mus musculus, UniProt P01899); settings: arginine to alanine substitution at position 1; cited from earlier work
T1 sequence (P01899 25-362): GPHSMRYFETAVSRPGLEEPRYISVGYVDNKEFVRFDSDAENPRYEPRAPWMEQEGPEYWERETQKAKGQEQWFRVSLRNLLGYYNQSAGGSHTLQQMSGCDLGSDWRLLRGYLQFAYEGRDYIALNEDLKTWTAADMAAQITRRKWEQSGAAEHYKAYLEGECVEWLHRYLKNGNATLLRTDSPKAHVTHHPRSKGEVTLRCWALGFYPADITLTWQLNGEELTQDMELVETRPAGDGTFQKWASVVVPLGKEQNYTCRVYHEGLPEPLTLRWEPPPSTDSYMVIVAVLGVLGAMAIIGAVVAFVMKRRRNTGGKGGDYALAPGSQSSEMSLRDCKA
T1 sequence (P01887 21-119 partner): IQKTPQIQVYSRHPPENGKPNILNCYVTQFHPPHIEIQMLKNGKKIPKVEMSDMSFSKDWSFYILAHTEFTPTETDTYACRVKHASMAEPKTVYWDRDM

[3] = test system: antigen-specific CD8 T lymphocytes; experiment: Immunogenicity of modified peptides with immune adjuvants (general observations, adjuvant type and timing); settings: in vivo
Method: Arginine-containing peptides and the hydrophobic peptides are highly immunogenic when administered together with Poly-IC because they are able to form complexes. This is supported by the observations that if the Poly-IC is injected intravenously (i.v) 3.5 to 5 hr before the peptide (also i.v.), then the immune responses are dramatically lower as compared to circumstances when both peptide and Poly-IC are administered together (FIGS. 7 and 8).
The inventors are developing assays that measure the formation of these complexes. The data has been observed with Poly-IC, which is both a TLR3 agonist and ligand for RIG-1 like receptors, or cytoplasmic helicases.
There are examples of antigens (proteins or peptides) that are conjugated to antibodies specific for cell surface molecules expressed on antigen-presenting cells in order to specifically target the antigens to these cells to generate immune responses. […] This is likely due to the antibodies, while targeting the antigen to the appropriate antigen-presenting cell, are not sufficiently stimulatory to activate the cell to become optimal to stimulate the T cell responses. In addition, the ODN-CpG-peptide complexes are not captured as efficiently due to their relatively small size, as compared to the peptide-poly-IC complexes, by the scavenger receptors on the antigen-presenting cells. […]

[4] = 50 μg Poly-IC, 7 days after identical boost (12 days apart), blood
[5] = hydrophobic tail at amino terminus, peptide mixed with 50 μg Poly-IC

## (Pam)2KMFV-TAPDNLGYM (KMFVTAPDNLGYM; not fully specified (residue 1); printed as (Pam)2KMFV-TAPDNLGYM)
[1]; [4]
  immune response, peptide injected together with Poly-IC versus 3.5 hours after the Poly-IC: stronger immune responses
[1]; [5]
  immunogenicity of peptide epitope (CD8 T cell response, tetramer analysis): increase the immunogenicity

## (R)3-MFVTAPDNLGYM (RRRMFVTAPDNLGYM; 3 arginine tail epitope Trp1 455/9m)
[1]
  immunogenicity of peptide epitope compared with hepta-arginine (R)7 tail: increases immunogenicity of a peptide epitope similar to the results obtained from a hepta-arginine (R)7 tail
[1]; listed as (R)3
  immunogenicity of peptide epitope compared with hepta-arginine (R)7 tail: function as well as peptides with seven arginines (R)7

## (R)7-MFV-TAPDNLGYM (RRRRRRRMFVTAPDNLGYM; 7 arginine tail epitope Trp1 455/9m)
[1]; charged amino acid tail + MFV linker, 120 μg peptide mixed with 50 μg Poly-IC
  immunogenicity of peptide epitope (CD8 T cell response, tetramer analysis): increases the immunogenicity
[1]; charged amino acid tail + MFV linker, 120 μg peptide mixed with 50 μg Poly-IC, listed as R7
  immunogenicity of peptide epitope (CD8 T cell response, tetramer analysis): function as good immunogens

## AAHYNIVTF (peptide epitope hpv16-e7 49/1a) [HPV16-E749/1A]
[2]
  immunogenicity of peptide epitope (CD8 T cell response, tetramer analysis): reduces its immunogenicity
[2]; listed as AAHYNIVTF
  immunogenicity of peptide epitope (CD8 T cell response, tetramer analysis): reduced dramatically the immunogenicity
MHC molecule
  capacity of the peptide to bind to the MHC molecule and be recognized by T cells: does not interfere with the capacity of the peptide to bind to the MHC molecule and be recognized by T cells

## LMFVMFV-TAPDNLGYM (LMFVMFVTAPDNLGYM; peptide epitope Trp1 455/9m with hydrophobic tail)
[1]; [5]
  immunogenicity of peptide epitope (CD8 T cell response, tetramer analysis): increase the immunogenicity

## RAHYNIVTF (peptide epitope hpv16-e7 49) [HPV16-E749]
[2]; [4]
  immune response, peptide injected together with Poly-IC versus 5 hours after the Poly-IC: stronger immune responses
[2]
  immunogenicity of peptide epitope (CD8 T cell response, tetramer analysis): more immunogenic than AAHYNIVTF

## polyinosinic:polycytidylic acid [poly-IC]
[3]
  effect on immune responses of injection prior to the injection of peptide-poly-IC complexes: inhibition of the immune responses
  generation of secondary (booster) immune responses by adjuvant: very potent
